Read-outs that look alike come from different tables or passages of the source.
Assays:
OX2 = target: T1, OX2 (Homo sapiens, UniProt O43614); assay: Measurement of orexin receptor-binding ability ([125I]-OX-A, cell membranes, OX2); design: expressed in transfected cells; host or cells: CHO cells (membrane preparation); settings: membranes of recombinant CHO cells expressing OX2, 0.2 nM [125I]-OX-A
T1 sequence (O43614 1-444): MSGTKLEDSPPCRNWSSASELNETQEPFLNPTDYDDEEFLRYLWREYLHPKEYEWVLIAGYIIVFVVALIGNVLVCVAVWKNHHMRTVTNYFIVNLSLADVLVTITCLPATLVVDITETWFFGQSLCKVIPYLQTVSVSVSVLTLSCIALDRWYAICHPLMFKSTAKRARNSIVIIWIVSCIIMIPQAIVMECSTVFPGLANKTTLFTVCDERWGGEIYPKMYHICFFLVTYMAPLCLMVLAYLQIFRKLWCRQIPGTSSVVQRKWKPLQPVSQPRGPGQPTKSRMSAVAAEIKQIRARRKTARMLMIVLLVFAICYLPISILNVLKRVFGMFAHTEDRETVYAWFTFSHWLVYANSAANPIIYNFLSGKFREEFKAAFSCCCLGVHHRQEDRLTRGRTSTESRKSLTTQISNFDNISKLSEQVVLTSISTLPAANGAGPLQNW

OX1 = target: T2, OX1 (Homo sapiens, UniProt O43613); assay: Measurement of orexin receptor-binding ability ([125I]-OX-A, cell membranes, OX1); design: expressed in transfected cells; host or cells: CHO cells (membrane preparation)
T2 sequence (O43613 1-425): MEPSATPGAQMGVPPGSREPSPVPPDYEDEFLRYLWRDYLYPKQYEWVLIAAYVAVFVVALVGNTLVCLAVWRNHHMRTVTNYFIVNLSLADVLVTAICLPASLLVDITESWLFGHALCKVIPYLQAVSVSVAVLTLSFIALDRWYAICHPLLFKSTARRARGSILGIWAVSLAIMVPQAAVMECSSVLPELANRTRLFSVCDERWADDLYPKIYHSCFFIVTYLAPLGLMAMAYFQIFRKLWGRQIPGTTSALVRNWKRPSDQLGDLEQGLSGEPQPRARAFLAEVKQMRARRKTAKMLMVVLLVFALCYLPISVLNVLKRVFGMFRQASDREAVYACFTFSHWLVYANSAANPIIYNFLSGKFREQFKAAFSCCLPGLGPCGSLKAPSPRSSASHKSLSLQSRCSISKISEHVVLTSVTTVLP
Procedure: 1. Measurement of Orexin Receptor-Binding Ability
The assay was carried out using a 96-well Wheat Germ Agglutinin Flash Plate (PerkinElmer). The volume in a single assay well was 100 ul, and the composition of the reaction solution was as follows:
25 mM HEPES (pH 7.5), 1 mM CaCl2, 4.5 mM MgCl2, 0.5% BSA (bovine serum albumin), 0.1% sodium azide, 0.05% Tween-20, and 0.2% DMSO.
Cell membranes were prepared from recombinant CHO cells that expressed OX2 or OX1. The cell membranes were used in an amount of 5 μg protein/assay. […] Finally, the radioactivity of each well was measured using a scintillation counter (TopCount, PerkinElmer).

[1] = membranes of recombinant CHO cells expressing OX1, 0.2 nM [125I]-OX-A, read-out: OX1 (IC50)

Row | SMILES | IC50 (OX2; read-out: OX2 (IC50)) [nM] | IC50 (OX1; [1]) [nM] | IC50 (OX2; OX2 (IC50) nM) [nM] | IC50 (OX1) [nM]
1 | COCc1nc(C)ncc1OC[C@@]1(c2cc(F)cc(OC)c2)C[C@H]1C(=O)Nc1cc(C)c(F)cn1 [Example 234, (1R,2S)-2-(3-fluoro-5-methoxyphenyl)-N-(5-fluoro-4-methylpyridin-2-yl)-2-{[(4-methoxymethyl-2-methylpyrimidin-5-yl)oxy]methyl}cyclopropanecarboxamide] | 4 | < 2 |  | 
2 | Cc1ncc(OC[C@@]2(c3ccccc3)C[C@H]2C(=O)Nc2cccc(N(C)C)c2)c(C)n1 [Example 19, (1R,2S)-N-[3-(dimethylamino)phenyl]-2-{[(2,4-dimethylpyrimidin-5-yl)oxy]methyl}-2-phenylcyclopropanecarboxamide] | 10 | 93 |  | 
3 | Cc1ncc(OC[C@@]2(c3ccc(F)c(F)c3)C[C@H]2C(=O)Nc2ccc(F)cn2)c(C)n1 [Example 169, (1R,2S)-2-(3,4-difluorophenyl)-2-{[(2,4-dimethylpyrimidin-5-yl)oxy]methyl}-N-(5-fluoropyridin-2-yl)cyclopropanecarboxamide] |  |  | 4 | 14
4 | Cc1ncc(OC[C@@]2(c3cccc(F)c3)C[C@H]2C(=O)Nc2ccc(F)c(O)n2)c(C)n1 [Example 325, (1R,2S)-2-{[(2,4-dimethylpyrimidin-5-yl)oxy]methyl}-N-(5-fluoro-6-hydroxypyridin-2-yl)-2-(3-fluorophenyl)cyclopropanecarboxamide] |  |  | 20 | 158
5 | Cc1ncc(OC[C@@]2(c3cccc(C(F)(F)F)c3)C[C@H]2C(=O)Nc2ccc(F)cn2)c(C)n1 [Example 266, (1R,2S)-2-{[(2,4-dimethylpyrimidin-5-yl)oxy]methyl}-N-(5-fluoropyridin-2-yl)-2-(3-trifluoromethylphenyl)cyclopropanecarboxamide] |  |  | 2.7 | 30
6 | COc1ccc([C@]2(COc3cnc(C)nc3C)C[C@H]2C(=O)Nc2ccc(F)cn2)cc1F [Example 322, (1R,2S)-2-{[(2,4-dimethylpyrimidin-5-yl)oxy]methyl}-2-(3-fluoro-4-methoxyphenyl)-N-(5-fluoropyridin-2-yl)cyclopropanecarboxamide] |  |  | 7 | 30
7 | Cc1ncc(OC[C@@]2(c3cccc(F)c3)C[C@H]2C(=O)Nc2ccc(Br)cn2)c(C)n1 [Example 279] |  |  | 3.2 | 24
8 | Cc1cccc(NC(=O)[C@@H]2C[C@@]2(COc2cnc(C)nc2C)c2ccccc2)n1 [Example 70] |  |  | 41 | 704
9 | Cc1ncc(OC[C@@]2(c3ccc(F)c(F)c3)C[C@H]2C(=O)Nc2ccccn2)c(C)n1 [Example 166, (1R,2S)-2-(3,4-difluorophenyl)-2-{[(2,4-dimethylpyrimidin-5-yl)oxy]methyl}-N-(pyridin-2-yl)cyclopropanecarboxamide] |  |  | 7 | 50
10 | CCc1nc(C)ncc1OC[C@@]1(c2ccccc2)C[C@H]1C(=O)Nc1cncc(OC)c1 [Example 317] | 20 | 451 |  | 
11 | COc1cccc(NC(=O)[C@@H]2C[C@@]2(COc2cnc(C)nc2C)c2ccccc2)c1 [Example 36, (1R,2S)-2-{[(2,4-dimethylpyrimidin-5-yl)oxy]methyl}-N-(3-methoxyphenyl)-2-phenylcyclopropanecarboxamide] | 3 | 9 |  | 
12 | Cc1ncc(OC[C@@]2(c3ccccc3)C[C@H]2C(=O)Nc2cccc(CC#N)c2)c(C)n1 [Example 39, (1R,2S)-N-[3-(cyanomethyl)phenyl]-2-{[(2,4-dimethylpyrimidin-5-yl)oxy]methyl}-2-phenylcyclopropanecarboxamide] | 6 | 354 |  | 
13 | COc1cc(F)cc([C@]2(COc3cnc(C)nc3C)C[C@H]2C(=O)Nc2ccc(F)cn2)c1 [Example 254] |  |  | 11 | 109
14 | COCc1nc(C)ncc1OC[C@@]1(c2cccc(F)c2)C[C@H]1C(=O)Nc1cccc(F)c1 [Example 195, (1R,2S)-N,2-bis(3-fluorophenyl)-2-{[(4-methoxymethyl-2-methylpyrimidin-5-yl)oxy]methyl}cyclopropanecarboxamide] | 3 | 6 |  | 
15 | Cc1ncc(OC[C@@]2(c3ccccc3)C[C@H]2C(=O)Nc2cc(F)cc(F)c2)c(C)n1 [Example 31] | 26 | 222 |  | 
16 | COc1cc(NC(=O)[C@@H]2C[C@@]2(COc2cnc(C)nc2C)c2cc(F)cc(F)c2)ncc1F [Example 138, (1R,2S)-2-(3,5-difluorophenyl)-2-{[(2,4-dimethylpyrimidin-5-yl)oxy]methyl}-N-(5-fluoro-4-methoxypyridin-2-yl)cyclopropanecarboxamide] | 2.4 | 2.6 |  | 
17 | COCc1nc(C)ncc1OC[C@@]1(c2cccc(F)c2)C[C@H]1C(=O)Nc1ccc(C(F)(F)F)cn1 [Example 201, (1R,2S)-2-(3-fluorophenyl)-2-{[(4-methoxymethyl-2-methylpyrimidin-5-yl)oxy]methyl}-N-[5-(trifluoromethyl)pyridin-2-yl]cyclopropanecarboxamide] |  |  | 4 | 5
18 | COCc1nc(C)ncc1OC[C@@]1(c2cccc(F)c2)C[C@H]1C(=O)Nc1ccc(F)cc1F [Example 196, (1R,2S)-N-(2,4-difluorophenyl)-2-(3-fluorophenyl)-2-{[(4-methoxymethyl-2-methylpyrimidin-5-yl)oxy]methyl}cyclopropanecarboxamide] | 4 | 9 |  | 
19 | Cc1ncc(OC[C@@]2(c3ccccc3)C[C@H]2C(=O)Nc2cc(F)nc(F)c2)c(C)n1 [Example 76-2, (1R,2S)-N-(2,6-difluoropyridin-4-yl)-2-{[(2,4-dimethylpyrimidin-5-yl)oxy]methyl}-2-phenylcyclopropanecarboxamide] | 47 | 914 |  | 
20 | Cc1ncc(OC[C@@]2(c3ccccc3)C[C@H]2C(=O)Nc2cccc(Cl)c2)c(C)n1 [Example 24, (1R,2S)-N-(3-chlorophenyl)-2-{[(2,4-dimethylpyrimidin-5-yl)oxy]methyl}-2-phenylcyclopropanecarboxamide] | 7 | 28 |  | 
21 | COCc1cc(NC(=O)[C@@H]2C[C@@]2(COc2cnc(C)nc2C)c2ccc(F)cc2)ncc1F [Example 109, (1R,2S)-2-{[(2,4-dimethylpyrimidin-5-yl)oxy]methyl}-N-(5-fluoro-4-methoxymethylpyridin-2-yl)-2-(4-fluorophenyl)cyclopropanecarboxamide] |  |  | 5.8 | 12
22 | Cc1ncc(OC[C@@]2(c3ccsc3)C[C@H]2C(=O)Nc2ccc(F)cn2)c(C)n1 [Example 270] |  |  | 58 | 264
23 | Cc1ncc(OC[C@@]2(c3cccc(C#N)c3)C[C@H]2C(=O)Nc2cc(C)c(F)cn2)c(C)n1 [Example 117, (1R,2S)-2-(3-cyanophenyl)-2-{[(2,4-dimethylpyrimidin-5-yl)oxy]methyl}-N-(5-fluoro-4-methylpyridin-2-yl)cyclopropanecarboxamide] | 4 | 19 |  | 
24 | Cc1ncc(OC[C@@]2(c3cccc(I)c3)C[C@H]2C(=O)Nc2ccc(F)cn2)c(C)n1 [Example 283, (1R,2S)-2-{[(2,4-dimethylpyrimidin-5-yl)oxy]methyl}-N-(5-fluoropyridin-2-yl)-2-(3-iodophenyl)cyclopropanecarboxamide] |  |  | 9 | 172
25 | COCc1nc(C)ncc1OC[C@@]1(c2cccc(F)c2)C[C@H]1C(=O)Nc1ccccn1 [Example 193, (1R,2S)-2-(3-fluorophenyl)-2-{[(4-methoxymethyl-2-methylpyrimidin-5-yl)oxy]methyl}-N-(pyridin-2-yl)cyclopropanecarboxamide] |  |  | 8 | 36
26 | Cc1ncc(N(C)C[C@@]2(c3cccc(F)c3)C[C@H]2C(=O)Nc2cc(C)c(F)cn2)c(C)n1 [Example 293] | 9 | 79 |  | 
27 | Cc1ncc(OCC2(c3cccc(C(F)(F)F)c3)CC2C(=O)Nc2ccc(C#N)cn2)c(C)n1 (centres unmarked) [Example 264] | 23 | 792 |  | 
28 | Cc1ncc(OC[C@@]2(c3ccccc3)C[C@H]2C(=O)Nc2ccc(F)nc2)c(C)n1 [Example 53] | 18 | 261 |  | 

Reference: patent publication US8268848B2, “Cyclopropane compound” (Eisai R&D Management Co., Ltd., priority 2010, dated 2012)
